Entries after “also recorded” stand apart in the source; their conditions may differ.
Columns and labels:
[1] = tested on: Kunming mice
Experimental: According to the Horn's method, 40 Kunming mice (with the weight of 19.8-22 g, including half male mice and half female mice) were divided into four groups at an equal ratio of 2.15, including a 464 mg/kg dose group, a 1,000 mg/kg dose group, a 2,150 mg/kg dose group and a 4,640 mg/kg dose group (each group was orally administrated at one time and includes 10 mice with half male mice and half female mice). […] 24 hours later, poisoning symptoms, occurrence time and death time of the experimental animals were observed every day for an observation period of 14 days. Dead animals and other animals sacrificed within 14 days were subjected to gross anatomy. When gross pathological changes were observed by naked eyes, pathological examination was performed.

[2] = tested on: HEK293 cells; conditions: 5 mM, 4 hours, confocal microscope
[3] = tested on: tau protein; conditions: SH-SY5Y cells, 3 hours, Western blot
Description: (§1) GAPDH was used as an internal reference protein.

[4] = target: GSK-3β (Cricetulus griseus, UniProt A0A061I155); conditions: CHO cells, treated 2 hours, 0-50 mM (vs lithium isobutyrate) or 0-90 mM (vs lithium carbonate), Western blot, GAPDH reference
Sequence of GSK-3β (Cricetulus griseus, UniProt A0A061I155) (A0A061I155 1-428): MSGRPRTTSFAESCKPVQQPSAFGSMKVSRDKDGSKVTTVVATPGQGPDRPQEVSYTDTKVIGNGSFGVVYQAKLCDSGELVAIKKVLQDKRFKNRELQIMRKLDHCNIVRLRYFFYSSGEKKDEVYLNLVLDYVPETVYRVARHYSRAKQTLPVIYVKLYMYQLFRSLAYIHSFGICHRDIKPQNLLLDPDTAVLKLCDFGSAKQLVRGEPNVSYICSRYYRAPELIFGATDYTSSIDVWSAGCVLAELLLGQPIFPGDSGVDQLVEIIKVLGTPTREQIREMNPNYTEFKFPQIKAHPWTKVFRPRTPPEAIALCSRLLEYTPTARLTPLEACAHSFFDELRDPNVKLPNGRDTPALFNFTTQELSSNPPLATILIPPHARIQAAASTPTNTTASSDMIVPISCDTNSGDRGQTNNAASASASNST
Description: The cells were continuously subjected to lysis by an RIPA buffer containing a protease inhibitor, followed by detection by Western blot with phosphorylated GSK-3β (Ser9) or a total GSK-3β antibody as an antibody.
GAPDH (glyceraldehyde-3-phosphate dehydrogenase) was used as an internal reference protein.

[5] = tested on: Notch protein; conditions: SH-SY5Y cells, 3 hours, concentration of less than 50 mM, Western blot
Description: GAPDH was used as an internal reference protein. A Notch protein is an important signaling molecule at the downstream of GSK-3, and plays an important positive role in regulating the proliferation and survival of cells.

[6] = target: GSK-3β (Mus musculus, UniProt Q9WV60); conditions: APP/PS1 mice, gavage, 0.02 and 0.08 mmol/mouse, 4 hours after administration
Sequence of GSK-3β (Mus musculus, UniProt Q9WV60) (Q9WV60 whole entry): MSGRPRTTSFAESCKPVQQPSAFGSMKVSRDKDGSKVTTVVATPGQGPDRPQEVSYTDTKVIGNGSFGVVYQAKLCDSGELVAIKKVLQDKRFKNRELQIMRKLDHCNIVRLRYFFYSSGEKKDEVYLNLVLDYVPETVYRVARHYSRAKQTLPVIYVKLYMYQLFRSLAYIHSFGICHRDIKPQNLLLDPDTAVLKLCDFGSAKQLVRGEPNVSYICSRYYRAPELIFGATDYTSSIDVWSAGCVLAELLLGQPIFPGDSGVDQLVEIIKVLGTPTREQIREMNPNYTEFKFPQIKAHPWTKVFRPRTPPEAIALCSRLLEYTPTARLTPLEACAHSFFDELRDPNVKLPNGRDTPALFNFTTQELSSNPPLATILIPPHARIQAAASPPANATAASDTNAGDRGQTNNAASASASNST
Experimental: Brain tissues were extracted, and a homogenate of the brain tissues was prepared.

[7] = tested on: β-catenine; conditions: CHO cells, 0-50 mM, 2 hours, Western blot
Description: as §1

Molecule | symptoms of experimental animals ([1]; oral, 464 mg/kg and 1,000 mg/kg dose groups) | symptoms and death of experimental animals ([1]; oral, 2,150 mg/kg and 4,640 mg/kg dose groups, within 24 hours) | change in morphology of HEK293 cells [2] | concentration at which an effect on total tau protein expression is seen [3] [mM] | inhibition of the activity of GSK-3β (phosphorylated GSK-3β (Ser9) expression) [4] | Notch protein expression [5] | effect on phosphorylated GSK-3β (Ser9) expression in brain tissues [6] | total tau protein expression ([3]; 0-50 mM) | cell survival related protein (β-catenine) expression [7]
O=C([O-])[O-].[Li+].[Li+] [lithium carbonate, reference compound] | no abnormalities | abnormal posture symptoms within 24 hours and are all dead | obvious change in morphology | 6.25 | obviously lower than that of the lithium isobutyrate-L-proline salt | obvious inhibition effect on the Notch protein expression | – | – | –
lithium isobutyrate-L-proline salt | – | – | – | 3.125 | significantly decreased phosphorylated GSK-3β (Ser9) expression in a dose-dependent manner; also recorded: dose-dependent inhibition effect on the GSK-3β, and the inhibition effect is stable | no influence on the Notch expression | significantly better than that of the lithium carbonate | significantly decrease the total tau protein expression in a concentration-dependent manner | significantly increases the cell survival related protein (β-catenine) expression in a dose-dependent manner
